Data set [1] in a line: Phase solubility study (apparent solubility of DIA and Rhe with ILs or HP-β-CD). It is filed as physicochemical. Conditions: 25 °C, aqueous with cosolvent or surfactant or cyclodextrin, thermodynamic from solid, read-out: saturation solubility. How it is done: The increase in the apparent solubility of both DIA and Rhe in the presence of the ILs was evaluated. Briefly, aqueous solutions of the ILs were prepared in the range of 0–200 mg/mL, and an excess of either DIA or Rhe was added to each vial. The samples were then incubated for 30 min at 25°C, and the undissolved drug was removed by centrifugation at […] for 15 min (Hettich Mikro 120 centrifuge). […] The drug concentration was measured by UV–Vis analysis. The DIA phase solubility study was also compared to the phase solubility study of DIA in the presence of HP-β-CD as a reference solubility/stability-enhancing excipient. […] The complexation K was calculated through Higuchi and Connors’ method, as previously reported.
The size distribution and zeta potential values of the ILs’ aggregates in aqueous solutions were evaluated by using a Zetasizer Nano ZS (Malvern) at 25 °C. The samples were prepared by adding an excess of either DIA or Rhe (5 mg/mL) to the aqueous IL solutions, incubating them for 30 min at 25 °C, and finally removing the excess drugs by centrifugation. […] In contrast, for PB solutions, the solutions were prepared in water, and […] of 100 mM pH 7 phosphate buffer was added per 1 mL of aqueous solution, directly in the cuvette, before the dynamic light scattering (DLS) analysis started. The concentrations of the solubilised drug were determined by UV–Vis analysis.

Data set [2] relates to BALB/3T3 clone A31 fibroblast cells. The data set is described as follows: Cytotoxicity screening (WST-1). Conditions: Mus musculus, 4 h incubation, read-out: IC50 of cell viability. It is filed as cell-based, murine. The protocol:
BALB/3T3 clone A31 fibroblast cells were grown in Dulbecco’s Modified Eagle Medium (DMEM), supplemented with 2 mM L-glutamine, 1% penicillin/streptomycin, and 10% bovine calf serum. Cells were grown in a CO2 incubator (Heracell 150i series) at 37 °C and 5% CO2, with cells sub-cultured at 80–90% confluency. The cell monolayers were rinsed with PBS and treated with trypsin–EDTA to detach the cells before their resuspension in fresh media. A subconfluent monolayer of BALB/3T3 clone A31 fibroblast cells was trypsinised, centrifuged at 1000 rpm for 5 min, resuspended in growth medium, and counted.
A cytotoxicity screening was carried out for both ILs (range […]), as well as DIA and Rhe (0.5–200 mg/mL). Briefly, BALB/3T3 clone A31 fibroblast cells were seeded in each well of 96-well plates at a seeding density of 6 × 10^3 cells/well for 24 h, until 60–70% confluence was reached. After 24 h, the medium was then removed from each well and replaced with DMEM containing the samples.
After 4 h of incubation, the media were removed, replaced with fresh medium containing 10% WST-1 reagent solution, and maintained for 4 h at 37° C with 5% CO2. Afterwards, formazan dye absorbance was quantified at 450 nm with the reference wavelength at 655 nm by using a multilabel reader (BioTek 800/TS, Thermo Scientific).
In general terms: Formazan colour is commonly taken as a measure of viable cells.

The subject of data set [3] is S. aureus (clinical isolate W4). The data set is described as follows: MIC determination (microdilution). It is filed as cell-based, Staphylococcus aureus. How it is done: (§1) A clinical isolate of S. aureus (W4) and the reference strain of P. aeruginosa ATCC 27853 were used in the study. For the preparation of stock cultures, bacterial strains were grown in Luria–Bertani broth (LB, Oxoid, Basingstoke, Hampshire, UK) until the late-log phase, subdivided into aliquots, and kept frozen at −80 °C until use. Identification and susceptibility testing of the S. aureus W4 strain were performed using MALDI-TOF (Bruker Daltonics, Bremen, Germany) and the BD Phoenix susceptibility testing system (BD, Milan, Italy), respectively.
(§2) The susceptibility of the bacterial strains to each of the tested compounds was assessed in terms of MIC values according to the standard microdilution method (Clinical and Laboratory Standards Institute–CLSI, 2018), with some modifications. Briefly, the bacteria were grown in LB broth until the exponential growth phase and then diluted in the same medium to reach a final density of 5 × 10^6 CFU/mL. A volume of 10 μL of the bacterial suspensions was added to 90 μL of LB in a 96-well plate in the absence (viability control) or presence of the test compound at different concentrations.
A general note: Broth dilution looks for growth in wells or tubes with falling amounts of substance.

The subject of data set [4] is P. aeruginosa ATCC 27853. In words: MIC determination (microdilution). It is filed as cell-based, Pseudomonas aeruginosa. How it is done:
as §1, §2

Data set [5] relates to P. aeruginosa ATCC 27853. The data set is described as follows: Biofilm inhibition assay (crystal violet). It is filed as cell-based, Pseudomonas aeruginosa. Conditions: any of the concentrations tested (3.12, 6.25, 12.5 μg/mL). The protocol: (§3) After overnight growth in LB, cultures of P. aeruginosa ATCC 27853 and S. aureus W4 were diluted 1:100 in LB or in 50% tryptone soy broth (TSB, Oxoid) supplemented with 0.25% glucose (Sigma), respectively. The bacterial suspensions were dispensed into flat-bottomed polystyrene 96-well microplates (Corning Costar, Lowell, MA, USA) in the presence of sub-MIC concentrations of Rhe and DIA (3.12, 6.25, and 12.5 μg/mL). A sample containing 0.8 DMSO % (corresponding to the highest concentration of DMSO tested) was used as a control. The microplates were incubated statically at 37 °C for 24 h, and the biofilm biomass was estimated by CV (Sigma-Aldrich) staining assay, as previously described.

The subject of the next data set is S. aureus W4. In words: Biofilm inhibition assay (crystal violet). It is filed as cell-based, Staphylococcus aureus. Conditions: 12.5 μg/mL. How it is done: as §3
The test system of data set [6] is murine fibroblast NIH 3T3 cells. On the set-up: method as in PMID 20302969, doi:10.1039/c0gc00813c. Conditions: ref [29],[30]; cited from earlier work.

Values after ≈ are worked out from the molar mass of the structure shown. Like-named read-outs stand apart in the source and are kept apart here. Bounds are passed on as bounds.

Regarding `O=C(O)c1cc(O)c2c(c1)C(=O)c1cccc(O)c1C2=O` [Rhe, rhein], the figures for the solubility at 30 min in data set [1] (in Bet6 solutions) and in data set [1] (in Carn6 solutions) were 220 µg/mL (≈ 774 µM) and 130 µg/mL (≈ 457 µM), respectively. In addition, in data set [2], the half-inhibitory concentration (IC50) (as a rule, the concentration that inhibits the measured activity by half) stood at 6.7 µg/mL (≈ 23.6 µM). Moreover, the MIC – broadly, the lowest concentration found to suppress growth – in data set [3] (Staphylococcus aureus, planktonic cells, 24 h, 37 °C) was 50 µg/mL (≈ 176 µM); with P. aeruginosa ATCC 27853 [4] (Pseudomonas aeruginosa, ATCC27853, planktonic cells, 24 h, 37 °C) it was over 50 µg/mL. The results for the antibacterial effect entry (in data set [3] (in words (discussion)); in the data set with P. aeruginosa ATCC 27853 [4] (in words (discussion))) were “exert antibacterial effects” and “inactive”, respectively. Also, in the data set on P. aeruginosa ATCC 27853 [5], the “biofilm formation (CV staining, OD 570 nm), difference vs control” value is given as “not statistically significant”. The “biofilm formation (CV staining, OD 570 nm)” value in the data set on S. aureus W4 was “statistically significant reduction in biofilm formation”.
With benzalkonium chloride [Bak], the IC50 in data set [6] was 9.4 µg/mL.

The values above are taken from article PMC9916883, “Betaine- and L-Carnitine-Based Ionic Liquids as Solubilising and Stabilising Agents for the Formulation of Antimicrobial Eye Drops Containing Diacerein” (International Journal of Molecular Sciences, 2023).
